# Patent publication US11046716B2, “Beta-lactamase inhibitors” (priority 2015, dated 2021)
# Like-named read-outs stand apart in the source and are kept apart here.
# Columns and labels:
# [1] = system: K. pneumoniae expressing the Class A carbapenemase KPC-2; assay: Broth microdilution MIC assay with meropenem, K. pneumoniae KPC-2; type: cell-based; details: Fixed Mero (meropenem) 4 μg/mL; K. p. 156319 KPC-3
# Method in brief: (§1)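 CLSI broth microdilution in cation-adjusted Mueller Hinton broth measured growth of β-lactamase-expressing strains, grown 3-5 h beforehand. The β-lactam partner was held at 4 μg/ml final while test compound was titrated 2-fold from 16 to 0.125 μg/mL final. After 16-20 h at 37° C, the compound MIC was determined by eye.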
# [2] = system: E. cloacae expressing the Class C P99; assay: Broth microdilution MIC assay with ceftazidime, E. cloacae P99; type: cell-based; details: Fixed CAZ (ceftazidime) 4 μg/mL; E. cl. 144200 p99 AmpC
# Method in brief: as §1
# [3] = system: E. coli expressing the Class A Extended Spectrum Beta-Lactamase (ESBL) CTX-M-15; assay: Broth microdilution MIC assay with ceftazidime, E. coli CTX-M-15; type: cell-based; details: Fixed CAZ (ceftazidime) 4 μg/mL; E. coli ESBL4 CTX-M-15
# Method in brief: as §1
# [4] = target: T1, SHV-5 (Klebsiella pneumoniae, UniProt P0A3M1); assay: β-lactamase enzyme inhibition assay, SHV-5 (cefotaxime substrate); type: biochemical
# T1 construct: made in house; host or cells: E. coli BL21(DE3)
# T1 sequence (P0A3M1 22-286): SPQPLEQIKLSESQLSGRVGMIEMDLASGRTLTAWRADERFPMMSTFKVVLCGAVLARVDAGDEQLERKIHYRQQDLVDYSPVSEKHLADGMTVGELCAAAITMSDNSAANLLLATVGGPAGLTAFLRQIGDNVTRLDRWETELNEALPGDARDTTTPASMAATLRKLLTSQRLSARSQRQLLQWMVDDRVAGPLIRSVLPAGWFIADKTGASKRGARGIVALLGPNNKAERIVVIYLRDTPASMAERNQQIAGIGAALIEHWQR
# Method in brief: (§2)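 Untagged enzyme from E. coli BL21(DE3), purified by Capto S then Superdex 75; 15 min 37 °C preincubation with inhibitor; KPC-2 read with imipenem at 300 nm, SHV-5 with cefotaxime at 260 nm, OXA-1 with nitrocefin 100 μM final at 486 nm; 10 min kinetic read; IC50 vs uninhibited wells.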
# [5] = target: T2, AmpC (Enterobacter cloacae, UniProt P05364); assay: β-lactamase enzyme inhibition assay, p99 AmpC (nitrocefin substrate); type: biochemical
# T2 construct: made in house; host or cells: E. coli BL21(DE3)
# T2 sequence (P05364 21-381): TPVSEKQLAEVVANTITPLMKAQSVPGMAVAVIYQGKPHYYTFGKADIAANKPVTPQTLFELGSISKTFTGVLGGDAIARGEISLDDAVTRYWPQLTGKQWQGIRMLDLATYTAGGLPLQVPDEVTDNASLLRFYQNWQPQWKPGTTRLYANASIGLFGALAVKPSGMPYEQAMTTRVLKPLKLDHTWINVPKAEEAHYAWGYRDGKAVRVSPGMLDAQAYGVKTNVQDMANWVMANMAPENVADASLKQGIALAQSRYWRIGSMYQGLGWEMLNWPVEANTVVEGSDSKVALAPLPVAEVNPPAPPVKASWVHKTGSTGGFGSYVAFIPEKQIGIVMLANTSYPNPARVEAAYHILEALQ
# Method in brief: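 Untagged enzyme from E. coli BL21(DE3), purified by Capto S then Superdex 75; 15 min 37 °C preincubation with inhibitor; 10 min kinetic read; IC50 vs uninhibited wells.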
# [6] = target: T3, VIM-2 (Escherichia coli, UniProt Q5U7L7); assay: β-lactamase enzyme inhibition assay, VIM-2 (nitrocefin substrate); type: biochemical
# T3 construct: made in house; host or cells: E. coli BL21(DE3)
# Method in brief: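 Nitrocefin hydrolysis (100 μM final, A486 read for 10 min) by purified VIM-2 after a 15-min, 37° C enzyme–inhibitor preincubation. IC50 is the concentration halving initial hydrolysis rate, derived from percent inhibition against no-inhibitor wells.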
# [7] = system: K. pneumoniae producing the Class D carbapenemase OXA-48; assay: Broth microdilution MIC assay with meropenem, K. pneumoniae OXA-48; type: cell-based; details: Fixed Mero (meropenem) 4 μg/mL; K. p. 11978 OXA-48
# Method in brief: as §1
# [8] = target: OXA-48 (UniProt Q6XEC0); assay: β-lactamase enzyme inhibition assay, Class D oxacillinase; type: biochemical; details: read-out: OXA-48
# [9] = target: T4, KPC-2 (Klebsiella pneumoniae, UniProt Q9F663); assay: β-lactamase enzyme inhibition assay, KPC-2 (imipenem substrate); type: biochemical
# T4 construct: made in house; host or cells: E. coli BL21(DE3)
# T4 sequence (Q9F663 25-293, looked up): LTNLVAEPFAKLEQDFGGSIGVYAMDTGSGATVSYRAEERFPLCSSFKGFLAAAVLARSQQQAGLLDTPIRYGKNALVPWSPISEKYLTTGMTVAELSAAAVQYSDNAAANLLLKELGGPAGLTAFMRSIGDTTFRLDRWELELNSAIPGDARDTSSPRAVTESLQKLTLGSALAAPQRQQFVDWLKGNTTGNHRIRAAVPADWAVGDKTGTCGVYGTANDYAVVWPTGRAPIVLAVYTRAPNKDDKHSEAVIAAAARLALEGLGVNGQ
# Method in brief: as §2
# [10] = system: P. aeruginosa expressing the Class B carbapenemase VIM-2; assay: Broth microdilution MIC assay with meropenem, P. aeruginosa VIM-2; type: cell-based; details: Fixed Mero (meropenem) 4 μg/mL; P. aerug. 2775 VIM-2
# Method in brief: as §1
# [11] = system: K. pneumoniae expressing the class A carbapenemase KPC-2 and the class B carbapenemase VIM-4; assay: Broth microdilution MIC assay with meropenem, K. pneumoniae KPC-2 and VIM-4; type: cell-based; details: Fixed Mero (meropenem) 4 μg/mL; K. p. A-1797 KPC-2 VIM-4
# Method in brief: as §1
# [12] = Class B, nitrocefin substrate, 486 nm, read-out: VIM-2
# [13] = Class A, imipenem substrate, 300 nm, read-out: KPC-2
Structure (SMILES),MIC (μg/mL) of Exemplary Compounds in presence of fixed β-lactams: K. p. 156319 KPC-3 [1],MIC (μg/mL) of Exemplary Compounds in presence of fixed β-lactams: E. cl. 144200 p99 AmpC [2],MIC (μg/mL) of Exemplary Compounds in presence of fixed β-lactams: E. coli ESBL4 CTX-M-15 [3],IC50 [4] [nM],IC50 [5] [nM],IC50 [6] [nM],MIC (μg/mL) of Exemplary Compounds in presence of fixed β-lactams: K. p. 11978 OXA-48 [7],IC50 [8] [nM],IC50 [9] [nM],MIC (μg/mL) of Exemplary Compounds in presence of fixed β-lactams: P. aerug. 2775 VIM-2 [10],MIC (μg/mL) of Exemplary Compounds in presence of fixed β-lactams: K. p. A-1797 KPC-2 VIM-4 [11],"IC50 [6, 12] [nM]","IC50 [9, 13] [nM]"
"NCCc1cnnn1CC(=O)N[C@H]1Cc2cccc(C(=O)O)c2OB1O [Example 121, (R)-3-(2-(5-(2-aminoethyl)-1H-1,2,3-triazol-1-yl)acetamido)-2-hydroxy-3,4-dihydro-2H-benzo[e][1,2]oxaborinine-8-carboxylic acid]",C (C represents an MIC of <1 μg/mL),C (C represents an MIC of <1 μg/mL),C (C represents an MIC of <1 μg/mL),< 100,< 100,100 to 1000,B (B represents an MIC between 1 and 16 μg/mL inclusive),< 100,< 100,C (C represents an MIC of <1 μg/mL),B (B represents an MIC between 1 and 16 μg/mL inclusive),,
"NCCn1cc(Cn2nnnc2CC(=O)N[C@H]2Cc3cccc(C(=O)O)c3OB2O)nn1 [Example 123, (R)-3-(2-(1-((1-(2-aminoethyl)-1H-1,2,3-triazol-4-yl)methyl)-1H-tetrazol-5-yl)acetamido)-2-hydroxy-3,4-dihydro-2H-benzo[e][1,2]oxaborinine-8-carboxylic acid]",C (C represents an MIC of <1 μg/mL),C (C represents an MIC of <1 μg/mL),C (C represents an MIC of <1 μg/mL),< 100,< 100,1000 to 10000,B (B represents an MIC between 1 and 16 μg/mL inclusive),100 to 1000,100 to 1000,A (A represents an MIC>16 μg/mL),B (B represents an MIC between 1 and 16 μg/mL inclusive),,
"NCCn1cc(Cn2nnc(CC(=O)N[C@H]3Cc4cccc(C(=O)O)c4OB3O)n2)nn1 [Example 124, (R)-3-(2-(2-((1-(2-aminoethyl)-1H-1,2,3-triazol-4-yl)methyl)-2H-tetrazol-5-yl)acetamido)-2-hydroxy-3,4-dihydro-2H-benzo[e][1,2]oxaborinine-8-carboxylic acid]",B (B represents an MIC between 1 and 16 μg/mL inclusive),C (C represents an MIC of <1 μg/mL),C (C represents an MIC of <1 μg/mL),< 100,< 100,,B (B represents an MIC between 1 and 16 μg/mL inclusive),100 to 1000,,A (A represents an MIC>16 μg/mL),B (B represents an MIC between 1 and 16 μg/mL inclusive),1000 to 10000,< 100
NCc1ncn(CC(=O)N[C@H]2Cc3cccc(C(=O)O)c3OB2O)n1 [Example 125],C (C represents an MIC of <1 μg/mL),C (C represents an MIC of <1 μg/mL),C (C represents an MIC of <1 μg/mL),100 to 1000,< 100,,B (B represents an MIC between 1 and 16 μg/mL inclusive),1000 to 10000,,C (C represents an MIC of <1 μg/mL),C (C represents an MIC of <1 μg/mL),< 100,< 100
